According to US12673063B2, “Methods and materials for treatment of fibrosis” (Massachusetts Eye and Ear Infirmary, priority 2020, dated 2026):

Columns and labels:
[1] = system: human lung fibroblasts (HLF); assay: CyQUANT Direct Cell Proliferation Assay, HLF; assay type: cell-based; conditions: 72 hours
From the text: (§1) We conducted mechanistic studies in cell culture to examine the cellular and molecular mechanisms underlying the robust effects of RUNX1 inhibition in the protection against bleomycin-induced lung injury. We tested the effect of RUNX1 inhibition on the proliferation of a human alveolar basal epithelial cell line (A549), primary human-derived pulmonary alveolar epithelial cells (HPAEpi), and in human-derived primary culture lung fibroblasts (HLF). For specific analyses we used escalating doses of Ro24-7429 (50-200 μM), Ro5-3335 (150 μM), pirfenidone (500 μg/ml) and nintedanib (5 μM), the latter two are currently approved drugs for IPF.

[2] = system: N-Cadherin in HPAEpi cells; assay: TGF-β1-induced N-Cadherin upregulation, Western blot, HPAEpi; assay type: cell-based, human; conditions: 150 μM and 200 μM, 24 hours prior to TGF-β1 exposure
Method: (§2) Human Pulmonary Alveolar Epithelial cells (HPAEpiCs) were purchased from ScienCell (Carlsbad, CA, USA) and cultured in alveolar epithelial cell medium (ScienCell) supplemented with 2% fetal bovine serum (FBS), epithelial cell growth supplement, 100 U/mL penicillin G, and 100 µg/mL streptomycin. The cells were cultured and maintained in 6-well plates for experimental purposes.
(§3) Protein concentration was determined by Pierce Bicinchonic acid (BCA) protein assay kit (ThermoFisher; 23227) according to the manufacturer's instructions. 20 μg of total cell lysates were prepared in 4 μL 1M 1,4-dithiothreitol (DTT; Sigma Aldrich) and 10 μL Laemmli buffer (Boston Bioproducts) to a final volume of 40 μL and denatured 5 min at 90° C. Samples were separated electrophoretically for 1 h at 70 V using 4-20% pre-cast gradient gels (Mini-PROTEAN TGX, Bio-Rad) and SDS-Tris-Glycine buffer (Bio-rad). Proteins were transferred to 0.45 μm nitrocellulose membranes for 1 h at 70 V in ice cold […] Tris-Glycine buffer (Bio-rad). Membranes were blocked for 1 h with Odyssey Blocking Buffer (LI-COR Biosciences). […]
(§4) We evaluated the effect of RUNX1 inhibition on the expression of fibrosis markers induced by TGF-β1, a critical mediator of PF (30), in A549 cells at 24, 48 and 72 hours. […]

[3] = system: bleomycin-induced lung fibrosis; assay: Bleomycin-induced lung fibrosis model, H&E, Masson's trichrome, Ashcroft score; assay type: in vivo, C57BL/6J mice
Method: Animal procedures were approved by the Institutional Animal Care and Use Committee (IACUC) of Massachusetts Eye and Ear, and performed in accordance with the Association for Research in Vision and Ophthalmology Statement for the Use of Animals in Ophthalmic and Vision Research. C57BL/6J male and female mice of 6-8 weeks-old were purchased from Jackson Laboratories. For all procedures, mice were anesthetized by intraperitoneal injection of Ketamine/xylazine mixture (100/50 mg/Kg).
(§5) Bleomycin sulphate (Sigma-Aldrich) was dissolved in sterile 0.9% saline and administered as a single dose of 0.05 units in a total volume of 50 μl in saline solution per animal intratracheally (IT). Control animals received 0.05 mL saline alone. A preventative regimen was chosen and each animal received either Ro24-7429 drug 70 mg/kg or vehicle every other day 7 days before the induction of the model and continued until the end of the experiment for 1 week or 2 weeks. All animals received intratracheal instillations of either bleomycin on day 0 as previously described (52-55). A separate experiment was performed with similar drug-vehicle treatments and IT saline instillation for controls. The surgeon performing IT instillations was masked to the identity of the treatment groups.
Lung samples were fixed in 10% neutral buffered formalin (Sigma, HT501128-4L), for 24 hours for histological analysis. Fixed lungs were paraffin embedded and sectioned (5 μm-thick) and stained with hematoxylin and eosin (H&E) to examine gross morphology and Masson's trichrome stain to visualize collagen deposition and examined by microscopy. Lung fibrosis was measured using quantitative histology using the Ashcroft method of analysis. All measurements were performed by two independent graders in a blinded fashion. Images were acquired with the Nikon Eclipse E800 microscope with an Olympus DP70 Camera. Adjacent 2× images of the lung were stitched together using Adobe Photoshop CS6.
Bleomycin triggers a strong inflammatory response in the lung at day 7 characterized by infiltration with neutrophils and macrophages, vascular leakage, and up-regulation of cytokines, chemokines and other inflammatory mediators. By day 14, bleomycin treated mice are expected to develop significant lung fibrosis including disruption of the normal lung architecture, thickening of the alveolar septa, and excessive extracellular matrix and collagen deposition around the alveolar structures. We examined the effects of escalating doses of Ro24-7429 (17.5, 35 and 70 mg/kg per day) on bleomycin-induced lung fibrosis by H&E and Masson's trichrome staining in mice at day 14 (FIG. 1A-B, FIG. 5A-B). These doses were estimated to be equivalent to those used in the Ro24-7429 human trial, 75, 150 or 300 mg per day, respectively (28).

RUNX1 mRNA in HMEC-Ls = assay: TNF-α-induced RUNX1 mRNA, qRT-PCR, HMEC-Ls; assay type: cell-based, human; conditions: 75 μM, TNF-α 5 ng/ml, 48 hours
[4] = system: RUNX1 and fibrosis markers in lung tissue; assay: Expression of RUNX1 and fibrosis markers in bleomycin-injured lung (Western blot, qRT-PCR, immunostaining); assay type: in vivo, C57BL/6J mice
Method: as §5
Paraffin embedded sections were processed for immunofluorescence using the following antibodies: anti-RUNX1 (1:100; LS-B13948; Lifespan Biosciences, Seattle, WA), anti-human a-SMA antibody (1:200; NB500-170; Novus Biologicals, Ontario, Canada), anti-Iba1 antibody (1:100; ab5076; Abcam, Cambridge, United Kingdom), anti-Ly6g antibody (1:100; ab25377; Abcam, Cambridge, United Kingdom), and Isolectin GS-IB4 Alexa Fluoro 594 Conjugate (1:250; 121413; Invitrogen, Carlsbad, CA). For heat-induced antigen retrieval the slides were boiled in 10 mM sodium citrate buffer (pH 6.0) and then maintained at a sub-boiling temperature (95-100° C.) for 20 minutes and subsequently cooled on the bench top for 30 minutes. Slides were washed with distilled water and permeabilized with 0.5% Triton X-100 in PBS for 5 minutes and blocked (10% goat serum in PBS) for 1 hour at RT. The primary antibody was prepared in antibody dilution buffer (5% goat serum) and samples were incubated overnight with the antibody solution at 4° C. Sections were washed with PBS and incubated with goat anti-rabbit Alexa Fluor 594 secondary antibody (1:500; A-11012; Invitrogen, Carlsbad, CA) for 2 hours at room temperature. Slides were mounted and visualized using Prolong Gold Antifade Reagent with DAPI (P36935, Invitrogen). Images were obtained using an EVOS FL automated stage live cell imaging system (Life Technologies, Cambridge, MA).
Protein concentration was determined by Pierce Bicinchonic acid (BCA) protein assay kit (ThermoFisher; 23227) according to the manufacturer's instructions. 20 μg of total cell lysates were prepared in 4 μL 1M 1,4-dithiothreitol (DTT; Sigma Aldrich) and 10 μL Laemmli buffer (Boston Bioproducts) to a final volume of 40 μL and denatured 5 min at 90° C. Samples were separated electrophoretically for 1 h at 70 V using 4-20% pre-cast gradient gels (Mini-PROTEAN TGX, Bio-Rad) and SDS-Tris-Glycine buffer (Bio-rad). Proteins were transferred to 0.45 μm nitrocellulose membranes for 1 h at 70 V in ice cold […] Tris-Glycine buffer (Bio-rad). Membranes were blocked for 1 h with Odyssey Blocking Buffer (LI-COR Biosciences). Then incubated with primary antibodies for 3 hours RT or overnight at 4 degrees Celsius and then washed 3× with TBS-T and incubated with secondary antibodies IRDye 800CW donkey anti-mouse for 1 hour and washed 3× with TBS-T.
Mice were treated as described previously before euthanasia. Lung samples were collected for qRT-PCR analysis and tissues lysed by homogenization. RNA was extracted using RNeasy Mini Kits (QIAGEN), as per the manufacturer's instructions for tissue samples. Transcription into complementary DNA and analysis were performed as stated previously. Primers for selected genes (Table 1) were purchased from Integrated DNA Technologies (Coralville, IA, USA).

FURIN mRNA in HMEC-Ls = assay: FURIN mRNA, qPCR, TNF-α-stimulated HMEC-Ls; assay type: cell-based, human; conditions: TNF-α 5 ng/ml
[5] = system: ACE2 protein in HPAEpi cells; assay: TGF-β1 and TNF-α induced ACE2 protein, Western blot, HPAEpi cells; assay type: cell-based, human; conditions: pretreatment
Method: as §2, §3
(§6) Additionally, we studied the effect of RUNX1 inhibition on the expression of ACE2 expression in TGF-β1 and TNF-α stimulated HPAEpi cells. […] FURIN protein levels were also observed to go down by 70% in the Ro24-7429 treated mice as evaluated by Western blot (FIGS. 4E-F).

[6] = system: human immunodeficiency virus (HIV); conditions: patients infected with HIV; cited from earlier work
[7] = system: ACE2 and FURIN in lung tissue; assay: ACE2 staining and FURIN protein in bleomycin-injured lung; assay type: in vivo, C57BL/6J mice
Method: as §5, with “groups. […]” for “groups.”
Protein concentration was determined by Pierce Bicinchonic acid (BCA) protein assay kit (ThermoFisher; 23227) according to the manufacturer's instructions. […]
as §6

[8] = system: bleomycin-induced inflammation; assay: Bleomycin-induced lung inflammation, infiltration of neutrophils and macrophages; assay type: in vivo, C57BL/6J mice; conditions: 1-week and 2-week time points
Method: as §5
Paraffin embedded sections were processed for immunofluorescence using the following antibodies: anti-RUNX1 (1:100; LS-B13948; Lifespan Biosciences, Seattle, WA), anti-human a-SMA antibody (1:200; NB500-170; Novus Biologicals, Ontario, Canada), anti-Iba1 antibody (1:100; ab5076; Abcam, Cambridge, United Kingdom), anti-Ly6g antibody (1:100; ab25377; Abcam, Cambridge, United Kingdom), and Isolectin GS-IB4 Alexa Fluoro 594 Conjugate (1:250; 121413; Invitrogen, Carlsbad, CA). […]
We evaluated the potential effect of Ro24-7429 on bleomycin-induced inflammation 1 week and 2 weeks after lung injury (FIGS. 1I-J and 2).

A549 cells [9] = assay: Lactate dehydrogenase (LDH) cell death assay, A549; assay type: cell-based; conditions: for cell death: 500μ g/ml
Method: (§7) Human type II alveolar epithelial cells (A549) were a generous gift from Dr. Lagares (Mass General Hospital). Cells were maintained in low glucose-DMEM containing 10% FBS, 2 mM L-glutamine, 100 U/ml penicillin and 100 μg/ml streptomycin at 37° C. in a humidified 5% C02 atmosphere.
We tested the effect of RUNX1 inhibition on the proliferation of a human alveolar basal epithelial cell line (A549), primary human-derived pulmonary alveolar epithelial cells (HPAEpi), and in human-derived primary culture lung fibroblasts (HLF).

A549 cells [10] = assay: CyQUANT Direct Cell Proliferation Assay, A549; assay type: cell-based, human; conditions: for percent live cells compared to vehicle treated: 48 hours, Ro5-3335 150 μM, Ro24-7429 50 μM-200 μM, Pirfenidone 500 μg/ml, Nintedanib 5 μM
Method: as §7, with “atmosphere. Confluent cultures of cells were pretreated with Ro24-7429 for 24 hours followed by stimulation with 5 ng/ml of TGF-β1.” for “atmosphere.”
as §1, with “We” for “We conducted mechanistic studies in cell culture to examine the cellular and molecular mechanisms underlying the robust effects of RUNX1 inhibition in the protection against bleomycin-induced lung injury. We”

[11] = system: human lung fibroblasts (HLF); assay: Lactate dehydrogenase (LDH) cell death assay, HLF; assay type: cell-based; conditions: Ro24-7429 50-200 μM, Ro5-3335 150 μM
From the text: as §1

N-Cadherin in A549 cells = assay: TGF-β1-induced N-Cadherin upregulation, Western blot, A549; assay type: cell-based, human; conditions: A549, 150 μM and 200 μM, 24 hours prior to TGF-β1 exposure
Method: as §7, with “atmosphere. Confluent cultures of cells were pretreated with Ro24-7429 for 24 hours followed by stimulation with 5 ng/ml of TGF-β1.” for “atmosphere.”
as §3, §4

[12] = bleomycin mice, lung tissue, day 14

## CNC1=Nc2ccc(Cl)cc2C(c2ccc[nH]2)=NC1 [Ro24-7429, 3H-1,4-Benzodiazepin-2-amine, 7-chloro-N-methyl-5-(1H-pyrrol-2-yl)-]
[1]; 50 μM
  reduction in proliferation: 30%
[1]; 200 μM
  reduction in proliferation: 55%
[2]
  TGF-β1-induced N-Cadherin upregulation: effectively prevented
[3]; 17.5 mg/kg, day 14
  effect on lung phenotype / progression of fibrosis: slight effect
[3]; 35 mg/kg, day 14
  effect on the progression of fibrosis: moderate but variable effect
[3]; 70 mg/kg, day 14
  Ashcroft fibrosis score: significant reduction
[3]; 70 mg/kg, day 14, H&E and Masson's trichrome
  lung structures after bleomycin instillation: robust preservation of lung structures
RUNX1 mRNA in HMEC-Ls
  reduction of TNF-α-induced upregulation of RUNX1 mRNA: 50%
[4]; 70 mg/kg, bleomycin mice
  α-SMA immunostaining localization: localized only to vessels
[4]; [12]
  expression of E-Cadherin, Western blot: preserved
  expression of RUNX1, Western blot: reduced
  expression of fibronectin, Western blot: reduced
[4]; bleomycin-injured mice, day 14
  RUNX1 upregulation, immunofluorescence and qRT-PCR: significantly attenuated
[4]; compared to vehicle treated mice, day 14
  upregulation of fibrosis markers triggered by bleomycin: blunted
FURIN mRNA in HMEC-Ls
  reduction of FURIN mRNA expression: 70%
[5]
  TGF-β1 and TNFα induced ACE2 protein levels: significantly reduced
[6]
  antiviral activity in clinical trials: no detectable antiviral activity
  safety profile in clinical trials: acceptable safety profile
[7]; bleomycin mice lungs, Western blot
  decrease of FURIN protein levels: 70%
[7]; bleomycin mouse model, 2-week time point, immunofluorescence
  ACE2 staining in the lung: markedly reduced
[8]
  infiltration of inflammatory cells, neutrophils and macrophages: reduced infiltration
A549 cells [9]; A549, Ro24-7429 50-200 μM, Ro5-3335 150 μM
  cell death by LDH analysis: Very low levels of cell death
A549 cells [10]
  percent live cells compared to vehicle treated: significant reduction
A549 cells [10]; A549, 48 hours, 50 μM
  reduction in proliferation: 62%
A549 cells [10]; A549, 48 hours, 200 μM
  reduction in proliferation: 68%
A549 cells [10]; A549, 72 hours, 200 μM
  reduction in proliferation: 82%
[11]
  cell death by LDH analysis: Very low levels of cell death
N-Cadherin in A549 cells
  TGF-β1-induced N-Cadherin upregulation: effectively prevented

## Cc1ccc(=O)n(-c2ccccc2)c1 [pirfenidone]
A549 cells [9]; A549, 48 hours
  cell death: 8%
A549 cells [9]; A549, 72 hours
  cell death: 11%
A549 cells [10]
  percent live cells compared to vehicle treated: significant reduction
